Measurements from ChEMBL document CHEMBL3044672, “N9- and N7-(Chloromethyl Phenymethyl)Chloropurine Derivatives from , '-Dichloroxylenes: Synthesis and Anticancer Activity” (2005).

Tests used:
Format in all cases: functional
[1] = test system: RPMI-8226; test: Cytotoxicity against Homo sapiens (human) RPMI8226 cells after 48 hr by sulforhodamine B assay; conditions: RPMI-8226, 48 h; for CC50: read-out: LC50 (the source's name)
[2] = test system: IGROV-1; test: Cytotoxicity against Homo sapiens (human) IGROV1 cells after 48 hr by sulforhodamine B assay; conditions: IGROV-1, 48 h
[3] = test system: SK-MEL-5; test: Cytotoxicity against Homo sapiens (human) SK-MEL-5 cells after 48 hr by sulforhodamine B assay; conditions: SK-MEL-5, 48 h
[4] = test system: SF-295; test: Cytotoxicity against Homo sapiens (human) SF295 cells after 48 hr by sulforhodamine B assay; conditions: SF-295, 48 h; for CC50: read-out: LC50 (the source's name)
[5] = test system: MDA-MB-231; test: Cytotoxicity against Homo sapiens (human) MDA-MB-231 cells after 48 hr by sulforhodamine B assay; conditions: MDA-MB-231, 48 h
[6] = test system: SF-268; test: Cytotoxicity against Homo sapiens (human) SF268 cells assessed as cell growth at 10^-4 M after 48 hr by […] assay; conditions: SF-268, 48 h, read-out: Activity
[7] = test system: DU-145; test: Cytotoxicity against Homo sapiens (human) DU145 cells after 48 hr by sulforhodamine B assay; conditions: DU-145, 48 h
[8] = test system: OVCAR-4; test: Cytotoxicity against Homo sapiens (human) OVCAR4 cells after 48 hr by sulforhodamine B assay; conditions: OVCAR-4, 48 h
[9] = test system: Hs-578T; test: Cytotoxicity against Homo sapiens (human) Hs 578T cells after 48 hr by sulforhodamine B assay
[10] = test system: NCI-H322M; test: Cytotoxicity against Homo sapiens (human) NCI-H322M cells after 48 hr by sulforhodamine B assay; conditions: for CC50: read-out: LC50 (the source's name)
[11] = test system: MOLT-4; test: Cytotoxicity against Homo sapiens (human) MOLT4 cells after 48 hr by sulforhodamine B assay; conditions: MOLT-4, 48 h; for CC50: read-out: LC50 (the source's name)
[12] = test system: OVCAR-3; test: Cytotoxicity against Homo sapiens (human) OVCAR3 cells after 48 hr by sulforhodamine B assay; conditions: OVCAR-3, 48 h
[13] = test system: PC-3; test: Cytotoxicity against Homo sapiens (human) PC3 cells after 48 hr by sulforhodamine B assay; conditions: PC-3, 48 h
[14] = test system: OVCAR-5; test: Cytotoxicity against Homo sapiens (human) OVCAR5 cells after 48 hr by sulforhodamine B assay; conditions: OVCAR-5, 48 h; for CC50: read-out: LC50 (the source's name)
[15] = test system: EKVX; test: Cytotoxicity against Homo sapiens (human) EKVX cells after 48 hr by sulforhodamine B assay; conditions: for CC50: read-out: LC50 (the source's name)
[16] = test system: NCI-H460; test: Cytotoxicity against Homo sapiens (human) NCI-H460 cells after 48 hr by sulforhodamine B assay; conditions: NCI-H460, 48 h; for CC50: read-out: LC50 (the source's name)
[17] = test system: T47D; test: Cytotoxicity against Homo sapiens (human) T47D cells after 48 hr by sulforhodamine B assay
[18] = test system: TK-10; test: Cytotoxicity against Homo sapiens (human) TK10 cells after 48 hr by sulforhodamine B assay; conditions: TK-10, 48 h; for CC50: read-out: LC50 (the source's name)
[19] = test system: HOP-62; test: Cytotoxicity against Homo sapiens (human) HOP62 cells after 48 hr by sulforhodamine B assay; conditions: HOP-62, 48 h; for CC50: read-out: LC50 (the source's name)
[20] = test system: COLO 205; test: Cytotoxicity against Homo sapiens (human) COLO205 cells after 48 hr by sulforhodamine B assay; conditions: COLO 205, 48 h; for CC50: read-out: LC50 (the source's name)
[21] = test system: HCT-116; test: Cytotoxicity against Homo sapiens (human) HCT116 cells after 48 hr by sulforhodamine B assay; conditions: HCT-116, 48 h; for CC50: read-out: LC50 (the source's name)
[22] = test system: SK-MEL-2; test: Cytotoxicity against Homo sapiens (human) SK-MEL-2 cells after 48 hr by sulforhodamine B assay; conditions: SK-MEL-2, 48 h
[23] = test system: MDA-MB-435; test: Cytotoxicity against Homo sapiens (human) MDA-MB-435 cells after 48 hr by sulforhodamine B assay; conditions: MDA-MB-435, 48 h
[24] = test system: SW-620; test: Cytotoxicity against Homo sapiens (human) SW620 cells after 48 hr by sulforhodamine B assay; conditions: SW-620, 48 h
[25] = test system: HCC 2998; test: Cytotoxicity against Homo sapiens (human) HCC2998 cells after 48 hr by sulforhodamine B assay; conditions: HCC 2998, 48 h; for CC50: read-out: LC50 (the source's name)
[26] = test system: SNB-75; test: Cytotoxicity against Homo sapiens (human) SNB75 cells after 48 hr by sulforhodamine B assay; conditions: SNB-75, 48 h
[27] = test system: RXF 393; test: Cytotoxicity against Homo sapiens (human) RXF393 cells after 48 hr by sulforhodamine B assay; conditions: RXF 393, 48 h; for CC50: read-out: LC50 (the source's name)
[28] = test system: MCF7; test: Cytotoxicity against Homo sapiens (human) MCF7 cells after 48 hr by sulforhodamine B assay; conditions: MCF7, 48 h
[29] = test system: KM12; test: Cytotoxicity against Homo sapiens (human) KM12 cells after 48 hr by sulforhodamine B assay; conditions: KM12, 48 h; for CC50: read-out: LC50 (the source's name)
[30] = test system: HT-29; test: Cytotoxicity against Homo sapiens (human) HT-29 cells after 48 hr by sulforhodamine B assay; conditions: HT-29, 48 h
[31] = test system: SK-OV-3; test: Cytotoxicity against Homo sapiens (human) SKOV3 cells after 48 hr by sulforhodamine B assay; conditions: SK-OV-3, 48 h
[32] = read-out: LC50 (the source's name)

## ClCc1cccc(Cn2cnc3c(Cl)nc(Cl)nc32)c1
[1]
  GI50: 3.31 µM
  TGI: > 100 µM
  CC50: > 100 µM
[2]
  GI50: 2.29 µM
  LC50: 19.9 µM
  TGI: 5.12 µM
[3]
  GI50: 1.58 µM
  LC50: 5.88 µM
  TGI: 3.02 µM
[4]
  GI50: 4.36 µM
  TGI: 17 µM
  CC50: 45.7 µM
[5]
  GI50: 1.95 µM
  LC50: 7.24 µM
  TGI: 3.71 µM
[6]
  growth at 100 µM: 0%
[7]
  GI50: 1.58 µM
  LC50: 5.62 µM
  TGI: 2.95 µM
[8]
  GI50: 5.49 µM
  LC50 (concentration killing 50% of cells): 61.7 µM
  TGI: 19.9 µM
[9]
  GI50: 1.99 µM
  TGI: 4.36 µM
[10]
  GI50: 2.29 µM
  TGI: 5.12 µM
  CC50: 15.8 µM
[11]
  GI50: 3.38 µM
  TGI: > 100 µM
  CC50: > 100 µM
[12]
  GI50: 1.58 µM
  LC50: 6.45 µM
  TGI: 3.23 µM
[13]
  GI50: 2.39 µM
  LC50 (concentration causing 50% cell kill): 55 µM
  TGI: 5.01 µM
[14]
  GI50: 6.45 µM
  TGI: 20.4 µM
  CC50: 47.9 µM
[15]
  GI50: 1.73 µM
  TGI: 2.31 µM
  CC50: 6.45 µM
[16]
  GI50: 2.34 µM
  TGI: 6.31 µM
  CC50: > 100 µM
[17]
  GI50: 1.95 µM
  LC50: > 100 µM
  TGI: 4.46 µM
[18]
  GI50: 1.73 µM
  TGI: 3.98 µM
  CC50: 8.91 µM
[19]
  GI50: 2.29 µM
  TGI: 4.36 µM
  CC50: 8.31 µM
[20]
  GI50: 2.23 µM
  TGI: 5.37 µM
  CC50: > 100 µM
[21]
  GI50: 1.62 µM
  TGI: 3.09 µM
  CC50: 5.88 µM
[22]
  GI50: 1.99 µM
  LC50 (concentration killing 50% of cells): 10 µM
  TGI: 4.46 µM
[23]
  GI50: 1.69 µM
  LC50: 6.31 µM
  TGI: 3.23 µM
[24]
  GI50: 1.58 µM
  TGI: 3.46 µM
[24]; [32]
  CC50: 7.76 µM
[25]
  GI50: 1.62 µM
  TGI: 3.16 µM
  CC50: 6.16 µM
[26]
  GI50: 2.04 µM
  TGI: 3.89 µM
[26]; [32]
  CC50: 7.41 µM
[27]
  GI50: 0.75 µM
  TGI: 2.09 µM
  CC50: 5.12 µM
[28]
  GI50: 2.04 µM
  LC50 (concentration killing 50% of cells): > 100 µM
  TGI: 6.45 µM
[29]
  GI50: 1.82 µM
  TGI: 3.8 µM
  CC50: 7.94 µM
[30]
  GI50: 2.39 µM
  TGI: > 100 µM
[30]; [32]
  CC50: > 100 µM

## ClCc1ccc(Cn2cnc3c(Cl)ncnc32)cc1
[1]
  GI50: 2.13 µM
  TGI: 9.34 µM
  CC50: > 100 µM
[2]
  GI50: 3.16 µM
  LC50: > 100 µM
  TGI: 25.1 µM
[3]
  GI50: 3.23 µM
  LC50: 74.1 µM
  TGI: 20.9 µM
[4]
  GI50: 0.27 µM
  TGI: 3.46 µM
  CC50: 24 µM
[5]
  GI50: 1.77 µM
  LC50: 8.7 µM
  TGI: 3.89 µM
[6]
  growth at 100 µM: 26%
[7]
  GI50: 1.31 µM
  LC50: 36.3 µM
  TGI: 11.8 µM
[8]
  GI50: 2.45 µM
  LC50 (concentration killing 50% of cells): > 100 µM
  TGI: 6.6 µM
[9]
  GI50: 10.2 µM
  LC50: > 100 µM
  TGI: 38.9 µM
[10]
  GI50: 1.82 µM
  TGI: 4.16 µM
  CC50: 9.33 µM
[11]
  GI50: 4.78 µM
  TGI: > 100 µM
  CC50: > 100 µM
[12]
  GI50: 1.38 µM
  LC50: 8.91 µM
  TGI: 3.54 µM
[13]
  GI50: 4.78 µM
  LC50 (concentration causing 50% cell kill): > 100 µM
  TGI: 72.4 µM
[14]
  GI50: 2.95 µM
  TGI: 9.23 µM
  CC50: 34.7 µM
[15]
  GI50: 2.45 µM
  TGI: 6.92 µM
  CC50: 38.9 µM
[16]
  GI50: 0.05 µM
  TGI: 1.82 µM
  CC50: 26.9 µM
[18]
  GI50: 1.09 µM
  TGI: 4.67 µM
  CC50: 22.9 µM
[31]
  GI50: 3.38 µM
  LC50: 91.2 µM
  TGI: 13.8 µM
[19]
  GI50: 1.94 µM
  TGI: 6.76 µM
  CC50: 32.4 µM
[20]
  GI50: 2.23 µM
  TGI: > 100 µM
  CC50: > 100 µM
[21]
  GI50: 1.12 µM
  TGI: 2.45 µM
  CC50: 25.1 µM
[22]
  GI50: 4.36 µM
  LC50 (concentration killing 50% of cells): > 100 µM
  TGI: > 100 µM
[23]
  GI50: 1.62 µM
  LC50: 15.8 µM
  TGI: 4.36 µM
[25]
  GI50: 0.66 µM
  TGI: 2.04 µM
  CC50: 5.12 µM
[27]
  GI50: 2.3 µM
  TGI: 5.49 µM
  CC50: > 100 µM
[28]
  GI50: 0.41 µM
  LC50 (concentration killing 50% of cells): > 100 µM
  TGI: 77.6 µM
[29]
  GI50: 2.14 µM
  TGI: 10.2 µM
  CC50: 95.5 µM
